Test results as given in PubChem BioAssay AID248 (DTP/NCI, 2004).
Where “and” joins values, the source holds several entries; their conditions need not be identical. Equal values may be shown once. Toxic doses and inconclusive results are not listed. Cut-off read from the data, not from the text of the source: active = T/C of 150% or more; inactive = T/C below 125%.

Test system: L1210 leukemia ip in BDF1 mice, survival T/C
Assay: NCI In Vivo Anticancer Drug Screen. Data for tumor model L1210 Leukemia (intraperitoneal) in B6D2F1 (BDF1) mice
Conditions: endpoint: mean survival time, higher = longer survival
Summary of the method: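 Transplanted-tumor mice were given test agent; controls received vehicle only. Survival readings from the two groups were divided (treated over control).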

[1] = dose: 100.0 mg/kg/injection, schedule: Q04DX003 (ip), vehicle: saline with Tween-80
[2] = dose: 200.0 mg/kg/injection, schedule: Q04DX003 (ip), vehicle: saline with Tween-80
[3] = dose: 400.0 mg/kg/injection, schedule: Q04DX003 (ip), vehicle: saline with Tween-80
[4] = dose: 50.0 mg/kg/injection, schedule: Q01DX009 (ip), vehicle: saline
[5] = dose: 100.0 mg/kg/injection, schedule: Q01DX009 (ip), vehicle: saline
[6] = dose: 100.0 mg/kg/injection, schedule: Q04DX003 (ip), vehicle: saline
[7] = dose: 200.0 mg/kg/injection, schedule: Q04DX003 (ip), vehicle: saline
[8] = dose: 100.0 mg/kg/injection, schedule: Q01DX001 (ip), vehicle: saline
[9] = dose: 200.0 mg/kg/injection, schedule: Q01DX001 (ip), vehicle: saline
[10] = dose: 400.0 mg/kg/injection, schedule: Q01DX001 (ip), vehicle: saline
[11] = dose: 100.0 mg/kg/injection, schedule: Q01DX009 (ip), vehicle: Klucel (hydroxypropylcellulose) (HPC)
[12] = dose: 200.0 mg/kg/injection, schedule: Q01DX009 (ip), vehicle: Klucel (hydroxypropylcellulose) (HPC)
[13] = dose: 400.0 mg/kg/injection, schedule: Q01DX009 (ip), vehicle: Klucel (hydroxypropylcellulose) (HPC)
[14] = dose: 100.0 mg/kg/injection, schedule: Q01DX009 (ip), vehicle: saline with Tween-80
[15] = dose: 400.0 mg/kg/injection, schedule: Q01DX009 (ip), vehicle: saline with Tween-80
[16] = dose: 100.0 mg/kg/injection, schedule: Q01DX001 (ip), vehicle: saline with Tween-80
[17] = dose: 200.0 mg/kg/injection, schedule: Q01DX001 (ip), vehicle: saline with Tween-80
[18] = dose: 400.0 mg/kg/injection, schedule: Q01DX001 (ip), vehicle: saline with Tween-80
[19] = dose: 200.0 mg/kg/injection, schedule: Q04DX003 (ip), vehicle: Klucel (hydroxypropylcellulose) (HPC)
[20] = dose: 400.0 mg/kg/injection, schedule: Q04DX003 (ip), vehicle: Klucel (hydroxypropylcellulose) (HPC)
[21] = dose: 200.0 mg/kg/injection, schedule: Q01DX009 (ip), vehicle: saline with Tween-80

Measured: T/C

O=Cc1ccc(/C=C2\C=Cc3ccccc32)cc1
inactive: [1] 93 % of control | [2] 91 % of control | [3] 92 % of control

CN1C(=O)C2C=C(Cl)C1c1ccccc12 (centres undefined)
inactive: dose: 100.0 mg/kg/injection, schedule: Q01DX001 (ip), vehicle: other 102 % of control | dose: 200.0 mg/kg/injection, schedule: Q01DX001 (ip), vehicle: other 94 % of control | dose: 400.0 mg/kg/injection, schedule: Q01DX001 (ip), vehicle: other 110 % of control

COc1ccc(C(O)CN)cc1 (centres undefined)
inactive: [4] 93 % of control | [5] 102 % of control | [6] 105 % of control | dose: 200.0 mg/kg/injection, schedule: Q01DX009 (ip), vehicle: saline 95 % of control and 102 % of control | [7] 103 % of control

c1ccc(N/N=C(\Oc2ccccc2)c2ccccc2)cc1
inactive: [1] 93 % of control | [2] 96 % of control | [3] 96 % of control

Nc1nc(N)c(N=Nc2ccc(S(=O)(=O)c3ccc(N=Nc4c(N)nc(N)[nH]c4=O)cc3)cc2)c(=O)[nH]1
inactive: [8] 91 % of control | [9] 96 % of control | [10] 91 % of control

CC(=O)N(c1ccccc1)c1nc(/C=N\NC(N)=S)cs1
inactive: [11] 105 % of control | [12] 106 % of control | [13] 100 % of control

O=[N+]([O-])c1ccc(N=Cc2ccc(Cl)cc2Cl)c(O)c1
inactive: dose: 100.0 mg/kg/injection, schedule: Q04DX002 (ip), vehicle: saline with Tween-80 86 % of control | dose: 200.0 mg/kg/injection, schedule: Q04DX002 (ip), vehicle: saline with Tween-80 120 % of control | dose: 400.0 mg/kg/injection, schedule: Q04DX002 (ip), vehicle: saline with Tween-80 99 % of control

CC1(NCc2ccc(Cl)cc2)COP(=O)(NCc2ccccc2)OC1 (centres undefined)
inactive: dose: 50.0 mg/kg/injection, schedule: Q01DX001 (ip), vehicle: saline 101 % of control | [8] 106 % of control | [9] 95 % of control | [10] 98 % of control

Cn1c[n+](-c2ccccc2)c([S-])n1
inactive: [8] 101 % of control | [9] 101 % of control | [10] 100 % of control

O=C(Nc1cccc(C(F)(F)F)c1)Nc1ccc2sc(=S)[nH]c2c1
inactive: dose: 6.25 mg/kg/injection, schedule: Q01DX009 (ip), vehicle: saline with Tween-80 95 % of control | dose: 12.5 mg/kg/injection, schedule: Q01DX009 (ip), vehicle: saline with Tween-80 93 % of control | dose: 25.0 mg/kg/injection, schedule: Q01DX009 (ip), vehicle: saline with Tween-80 93 % of control | dose: 50.0 mg/kg/injection, schedule: Q01DX009 (ip), vehicle: saline with Tween-80 86 % of control | [14] 86 % of control | [15] 95 % of control

N#CC(C#N)=NNc1ccc(S(=O)(=O)c2ccc(NN=C(C#N)C#N)cc2)cc1
inactive: [1] 103 % of control | [2] 97 % of control | [3] 97 % of control

Cc1ccc(NN)c(I)c1
inactive: [16] 97 % of control | [17] 93 % of control | [18] 95 % of control

Cc1ccc(S(=O)(=O)OCC2C3C=CC(C3)C2COS(=O)(=O)c2ccc(C)cc2)cc1 (centres undefined)
inactive: [11] 92 % of control | dose: 100.0 mg/kg/injection, schedule: Q04DX003 (ip), vehicle: Klucel (hydroxypropylcellulose) (HPC) 95 % of control | [12] 97 % of control | [19] 98 % of control | [13] 98 % of control | [20] 95 % of control

CCOC(=O)CN(CC(=O)OCC)CC(O)C(Cl)(Cl)Cl (centres undefined)
inactive: [14] 106 % of control | [1] 96 % of control | [21] 93 % of control | [2] 101 % of control | [15] 104 % of control | [3] 98 % of control

CCN(CC)CCOc1ccc(C)cc1
inactive: [4] 97 % of control | [5] 89 % of control

N#CC(C#N)=C(C#N)C#N
inactive: dose: 3.13 mg/kg/injection, schedule: Q01DX009 (ip), vehicle: Klucel (hydroxypropylcellulose) (HPC) 95 % of control | dose: 6.25 mg/kg/injection, schedule: Q01DX009 (ip), vehicle: Klucel (hydroxypropylcellulose) (HPC) 91 % of control

CCC(C)C(C(=O)OC1CCN(CC)CC1)c1ccccc1 (centres undefined)
inactive: [6] 94 % of control

O=C(Nc1ccc(Cl)c(Cl)c1)SCCSC(=O)Nc1ccc(Cl)c(Cl)c1
inactive: [16] 107 % of control | [17] 92 % of control | [18] 93 % of control

O=C(SCO)c1ccccc1
inactive: dose: 100.0 mg/kg/injection, schedule: Q01DX009 (sc), vehicle: olive oil, sesame oil, peanut oil 108 % of control | dose: 100.0 mg/kg/injection, schedule: Q04DX003 (sc), vehicle: olive oil, sesame oil, peanut oil 107 % of control | dose: 200.0 mg/kg/injection, schedule: Q01DX009 (sc), vehicle: olive oil, sesame oil, peanut oil 96 % of control | dose: 200.0 mg/kg/injection, schedule: Q04DX003 (sc), vehicle: olive oil, sesame oil, peanut oil 96 % of control | dose: 400.0 mg/kg/injection, schedule: Q01DX009 (sc), vehicle: olive oil, sesame oil, peanut oil 103 % of control | dose: 400.0 mg/kg/injection, schedule: Q04DX003 (sc), vehicle: olive oil, sesame oil, peanut oil 93 % of control

CCc1c(Nc2ccccc2Cl)nc(N)[nH]c1=O
inactive: dose: 100.0 mg/kg/injection, schedule: Q01DX Z (ip), vehicle: methylcellulose (MC) 95 % of control

Nc1nc(N)nc(NC(=O)CNCc2ccccc2)n1
inactive: [1] 101 % of control and 105 % of control | [2] 97 % of control and 107 % of control | [3] 97 % of control and 102 % of control

N#CC(C#N)=NNc1cccc(Cl)c1
inactive: [19] 96 % of control | [20] 101 % of control

CN1CN(c2ccccc2)C2(CCN(Cc3ccccc3)CC2)C1=O
inactive: [8] 101 % of control | [9] 101 % of control | [10] 103 % of control

C[Si](C)(C)Oc1cccc([Si](C)(C)C)c1
inactive: [14] 97 % of control | [21] 95 % of control | [15] 92 % of control

COC1C(CO)OC(n2cnc3c(=O)[nH]c(N)nc32)C1O (centres undefined)
inactive: dose: 100.0 mg/kg/injection, schedule: Q01DX001 (ip), vehicle: carboxymethylcellulose (CMC) 98 % of control | dose: 200.0 mg/kg/injection, schedule: Q01DX001 (ip), vehicle: carboxymethylcellulose (CMC) 104 % of control | dose: 400.0 mg/kg/injection, schedule: Q01DX001 (ip), vehicle: carboxymethylcellulose (CMC) 114 % of control

Cc1noc(/N=C/c2ccccc2)c1C
inactive: dose: 100.0 mg/kg/injection, schedule: Q01DX009 (ip), vehicle: other 95 % of control | [6] 103 % of control | dose: 200.0 mg/kg/injection, schedule: Q01DX009 (ip), vehicle: other 102 % of control | [7] 103 % of control | dose: 400.0 mg/kg/injection, schedule: Q01DX009 (ip), vehicle: other 107 % of control | dose: 400.0 mg/kg/injection, schedule: Q04DX003 (ip), vehicle: saline 96 % of control
